Assay results as given in article PMC4054954 (Brain research, 2011).
“Also recorded” adds a separate entry of the source.

System: HT-22 cells
Test: HT-22 cell-based glutamate cytoprotection assay
Design: species or system murine
Details: for cytoprotection / neuroprotection of HT-22 cells (in words): glutamate-induced oxidative stress cell death

In the case of `O=C(CCCN1CCC(O)(c2ccc(Cl)cc2)CC1)c1ccc(F)cc1` [haloperidol], the “cytoprotection / neuroprotection of HT-22 cells (in words)” value (“cytoprotection / neuroprotection” for short) is reported as “potent neuroprotective agent; also recorded: protective”.
For `CC(C)=CCN1CC[C@]2(C)c3cc(O)ccc3C[C@H]1[C@H]2C` [(+)-pentazocine], the EC50 (Mus musculus, HT-22, read-out: cytoprotective EC50) was over 4 µM and the “cytoprotection / neuroprotection” value was “not to be neuroprotective; also recorded: not cytoprotective”.
`O=C(OCCN1CCOCC1)C1(c2ccccc2)CCCCC1` [PRE-084] was tested, and the “cytoprotection / neuroprotection” value was “not cytoprotective”.
